Values quoted from earlier work as cited in patent US20050163837A1, “Rosiglitazone formulations” (priority 2003, published 2005).

What was measured:
[1] = test system: mouse models of diabetes
[2] = test system: animal models of type 2 diabetes

For `CN(CCOc1ccc(CC2SC(=O)NC2=O)cc1)c1ccccn1` (stereo not drawn) [Rosiglitazone, 5-[4-[2-(N-methyl-N-(2-pyridyl)amino)ethoxy]benzyl]thiazolidine-2,4-dione], the “development of overt diabetes” value ([1]; mouse models) is given as “prevent the development of overt diabetes”, the “blood glucose levels and hyperinsulinemia” value ([1]; several mouse models of diabetes) is given as “reduce blood glucose levels and hyperinsulinemia” and the “induction of hypoglycemia or impaired glucose tolerance” value [2] is given as “did not induce hypoglycemia or impaired glucose tolerance”.
